Laboratory results as given in patent US20230286970A1, “NOVEL OXADIAZOLE-BASED SELECTIVE HDAC6 INHIBITORS” (ITALFARMACO S.P.A., priority 2020, published 2023).

Columns and labels:
recombinant human HDAC6 = recombinant human HDAC6 (Homo sapiens (Human), UniProt Q9UBN7); experiment: Enzymatic screening, HDAC6 inhibition (fluorogenic FdL_G substrate); format: biochemical
Procedure, shortened: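 Enzyme was preincubated with compound (8 doses, triplicate, 1% DMSO) in 25 mM Tris-HCl pH 8, 130 mM NaCl, 0.05% Tween-20, 10% glycerol, with BSA. A FLUOR DE LYS-Green substrate was then added, and fluorescence was read after developer plus 2 μM TSA.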

recombinant human HDAC1 = recombinant human HDAC1 (Homo sapiens (Human), UniProt Q13547); experiment: Enzymatic screening, HDAC1 inhibition (fluorogenic FdL_G substrate); format: biochemical
Chain of recombinant human HDAC1 (Q13547 whole entry): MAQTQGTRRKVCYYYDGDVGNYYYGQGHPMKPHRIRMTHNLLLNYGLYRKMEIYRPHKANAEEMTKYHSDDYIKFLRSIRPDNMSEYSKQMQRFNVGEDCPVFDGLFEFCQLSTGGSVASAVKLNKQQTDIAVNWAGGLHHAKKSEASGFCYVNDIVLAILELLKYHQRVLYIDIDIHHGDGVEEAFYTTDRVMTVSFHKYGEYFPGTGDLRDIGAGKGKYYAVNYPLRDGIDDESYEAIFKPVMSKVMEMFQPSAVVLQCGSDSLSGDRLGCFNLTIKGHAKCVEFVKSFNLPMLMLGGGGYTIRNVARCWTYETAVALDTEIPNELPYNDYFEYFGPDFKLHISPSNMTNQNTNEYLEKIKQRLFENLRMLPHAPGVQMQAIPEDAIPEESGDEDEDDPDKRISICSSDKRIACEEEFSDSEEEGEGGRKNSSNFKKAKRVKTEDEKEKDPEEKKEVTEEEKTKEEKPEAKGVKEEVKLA
Procedure, shortened: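 Recombinant human HDAC1 inhibition was measured fluorometrically using the FLUOR DE LYS-Green (FdL_G) substrate. Compounds at 8 doses (1% DMSO final) in Tris-HCl pH 8 buffer with NaCl, Tween-20 and glycerol were preincubated in triplicate with enzyme and 1 mg/mL BSA, then given substrate. Developer I plus 2 μM TSA was added, and fluorescence read after 25 minutes in the dark.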

Chain of recombinant human HDAC6 (Q9UBN7 whole entry): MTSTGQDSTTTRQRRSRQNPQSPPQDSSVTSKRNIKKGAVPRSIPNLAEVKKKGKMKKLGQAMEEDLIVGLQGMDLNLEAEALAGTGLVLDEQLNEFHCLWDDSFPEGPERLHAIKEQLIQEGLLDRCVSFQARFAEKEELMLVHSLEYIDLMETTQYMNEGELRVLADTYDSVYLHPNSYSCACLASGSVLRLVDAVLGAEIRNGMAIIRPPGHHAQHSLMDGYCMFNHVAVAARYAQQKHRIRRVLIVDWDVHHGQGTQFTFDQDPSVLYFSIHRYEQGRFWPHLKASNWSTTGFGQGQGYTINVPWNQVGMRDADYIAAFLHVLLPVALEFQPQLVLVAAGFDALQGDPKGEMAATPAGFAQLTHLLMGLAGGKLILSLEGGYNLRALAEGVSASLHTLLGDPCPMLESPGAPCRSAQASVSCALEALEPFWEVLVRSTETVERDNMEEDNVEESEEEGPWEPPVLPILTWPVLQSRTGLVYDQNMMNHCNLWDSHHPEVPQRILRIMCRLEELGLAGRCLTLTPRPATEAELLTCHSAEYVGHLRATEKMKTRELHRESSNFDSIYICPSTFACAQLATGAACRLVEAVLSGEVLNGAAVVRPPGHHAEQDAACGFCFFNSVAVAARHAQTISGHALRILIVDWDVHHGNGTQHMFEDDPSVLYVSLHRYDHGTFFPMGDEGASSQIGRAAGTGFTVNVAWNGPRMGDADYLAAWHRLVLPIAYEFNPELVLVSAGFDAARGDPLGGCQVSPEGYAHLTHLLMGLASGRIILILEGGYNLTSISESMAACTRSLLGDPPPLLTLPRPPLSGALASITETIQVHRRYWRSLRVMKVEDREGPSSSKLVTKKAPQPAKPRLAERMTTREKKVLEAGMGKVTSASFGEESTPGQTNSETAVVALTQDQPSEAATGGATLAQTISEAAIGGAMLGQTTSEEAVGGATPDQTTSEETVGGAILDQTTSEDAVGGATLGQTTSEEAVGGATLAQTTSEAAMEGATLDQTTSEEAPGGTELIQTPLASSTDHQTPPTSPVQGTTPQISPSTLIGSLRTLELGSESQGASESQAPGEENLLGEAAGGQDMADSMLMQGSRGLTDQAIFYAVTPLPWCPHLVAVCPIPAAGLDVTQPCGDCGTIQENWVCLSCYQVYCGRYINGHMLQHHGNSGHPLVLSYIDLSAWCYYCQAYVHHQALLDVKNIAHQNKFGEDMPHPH

| IC50 (recombinant human HDAC6) | IC50 (recombinant human HDAC1) | Structure (SMILES) |
| --- | --- | --- |
| 38 nM | > 200 µM | O=C(Nc1cccc(-c2nnn(Cc3c(F)cc(-c4nnc(C(F)F)o4)cc3F)n2)c1)N1CCOCC1 [compound 98, N-(3-(2-(4-(5-(difluoromethyl)-1,3,4-oxadiazol-2-yl)-2,6-difluorobenzyl)-2H-tetrazol-5-yl)phenyl)morpholine-4-carboxamide] |
| 45 nM | > 200 µM | O=C(Nc1cccc(-c2cnn(Cc3ccc(-c4nnc(C(F)F)o4)cn3)c2)c1)N1CCOCC1 [compound 119, N-(3-(1-((5-(5-(difluoromethyl)-1,3,4-oxadiazol-2-yl)pyridin-2-yl)methyl)-1H-pyrazol-4-yl)phenyl)morpholine-4-carboxamide] |
| 55 nM | > 200 µM | CC(=O)Nc1cccc(-c2cn(Cc3ccc(-c4nnc(C(F)F)o4)cc3)nn2)c1 [compound 139, N-(3-(1-(4-(5-(difluoromethyl)-1,3,4-oxadiazol-2-yl)benzyl)-1H-1,2,3-triazol-4-yl)phenyl)acetamide] |
| 138 nM | > 1000 µM | CS(=O)(=O)NCC[C@@H](c1ccc(-c2nnc(C(F)F)o2)cc1)n1cc(-c2ccc(N)nc2)nn1 [compound 310, N-[(3S)-3-[4-(6-aminopyridin-3-yl)triazol-1-yl]-3-[4-[5-(difluoromethyl)-1,3,4-oxadiazol-2-yl]phenyl]propyl]methanesulfonamide] |
| 147 nM | > 200 µM | CN1CCN(c2ccc(-c3nnn(Cc4ccc(-c5nnc(C(F)F)o5)cc4)n3)cn2)CC1 [compound 212, 2-(difluoromethyl)-5-(4-((5-(6-(4-methylpiperazin-1-yl)pyridin-3-yl)-2H-tetrazol-2-yl)methyl)phenyl)-1,3,4-oxadiazole] |
| 31 nM | > 200 µM | FC(F)c1nnc(-c2ccc(Cn3cc(-c4cnc5cccnn45)nn3)nc2)o1 [compound 74, 2-(difluoromethyl)-5-(6-((4-(imidazo[1,2-b]pyridazin-3-yl)-1H-1,2,3-triazol-1-yl)methyl)pyridin-3-yl)-1,3,4-oxadiazole] |
| 9 nM | > 1000 µM | [2H]C([2H])(c1ccc(-c2nnc(C(F)F)o2)cn1)n1cc(-c2ccc3nc(N)sc3c2)nn1 [compound 376, 6-[1-[dideuterio-[5-[5-(difluoromethyl)-1,3,4-oxadiazol-2-yl]pyridin-2-yl]methyl]triazol-4-yl]-1,3-benzothiazol-2-amine] |
| 53 nM | > 200 µM | O=C(c1cccc(-c2nnn(Cc3ccc(-c4nnc(C(F)F)o4)c(F)c3)n2)c1)N1CCOCC1 [compound 137, (3-(2-(4-(5-(difluoromethyl)-1,3,4-oxadiazol-2-yl)-3-fluorobenzyl)-2H-tetrazol-5-yl)phenyl)(morpholino)methanone] |
| 65 nM | > 1000 µM | NC(=O)c1cccc(-c2cnn(Cc3ccc(-c4nnc(C(F)F)o4)cn3)c2)c1 [compound 334, 3-[1-[[5-[5-(difluoromethyl)-1,3,4-oxadiazol-2-yl]pyridin-2-yl]methyl]pyrazol-4-yl]benzamide] |
| 40 nM | 1000 µM | Nc1ncnc2sc(-c3cn(Cc4c(F)cc(-c5nnc(C(F)F)o5)cc4F)nn3)cc12 [compound 386, 6-(1-(4-(5-(difluoromethyl)-1,3,4-oxadiazol-2-yl)-2,6-difluorobenzyl)-1H-1,2,3-triazol-4-yl)thieno[2,3-d]pyrimidin-4-amine] |
| 43 nM | > 200 µM | O=C1Nc2ccc(-c3cn(Cc4ccc(-c5nnc(C(F)F)o5)cc4)nn3)cc2NC12CCNCC2 [compound 271, 7′-(1-(4-(5-(difluoromethyl)-1,3,4-oxadiazol-2-yl)benzyl)-1H-1,2,3-triazol-4-yl)-1′,4′-dihydro-3′H-spiro[piperidine-4,2′-quinoxalin]-3′-one] |
| 9 nM | > 1000 µM | Fc1cc(-c2nnc(C(F)F)o2)c(F)cc1Cn1cnc(-c2ccc(NC3=NCCN3)cc2)c1 [compound 361, N-[4-[1-[[4-[5-(difluoromethyl)-1,3,4-oxadiazol-2-yl]-2,5-difluorophenyl]methyl]imidazol-4-yl]phenyl]-4,5-dihydro-1H-imidazol-2-amine] |
| 26 nM | > 1000 µM | Cn1c(N)nc2cc(-c3nnn(Cc4ccc(-c5nnc(C(F)F)o5)cc4F)n3)ccc21 [compound 348, 5-[2-[[4-[5-(difluoromethyl)-1,3,4-oxadiazol-2-yl]-2-fluorophenyl]methyl]tetrazol-5-yl]-1-methylbenzimidazol-2-amine] |
| 129 nM | > 200 µM | Cn1c(N)nc2cc(-c3nnnn3Cc3ncc(-c4nnc(C(F)F)o4)cn3)ccc21 [compound 291, 5-(1-((5-(5-(difluoromethyl)-1,3,4-oxadiazol-2-yl)pyrimidin-2-yl)methyl)-1H-tetrazol-5-yl)-1-methyl-1H-benzo[d]imidazol-2-amine] |
| 31 nM | > 200 µM | Nc1cncc(-c2cn(Cc3c(F)cc(-c4nnc(C(F)F)o4)cc3F)nn2)c1 [compound 73, 5-(1-(4-(5-(difluoromethyl)-1,3,4-oxadiazol-2-yl)-2,6-difluorobenzyl)-1H-1,2,3-triazol-4-yl)pyridin-3-amine] |
| 107 nM | > 200 µM | Nc1cccc(-c2cn(Cc3ccc(-c4nnc(C(F)F)o4)cc3)cn2)c1 [compd. 197, 3-(1-(4-(5-(difluoromethyl)-1,3,4-oxadiazol-2-yl)benzyl)-1H-imidazol-4-yl)aniline] |
| 192 nM | 1000 µM | CNc1ncc2cc(-c3cn(Cc4ccc(-c5nnc(C(F)F)o5)c(F)c4F)nn3)ccc2n1 [compound 389, 6-[1-({4-[5-(difluoromethyl)-1,3,4-oxadiazol-2-yl]-2,3-difluorophenyl}methyl)-1H-1,2,3-triazol-4-yl]-N-methylquinazolin-2-amine] |
| 144 nM | 1000 µM | CNc1ccc2cc(-c3nnn(Cc4ccc(-c5nnc(C(F)F)o5)cc4F)n3)ccc2n1 [compound 401, 6-[2-[[4-[5-(difluoromethyl)-1,3,4-oxadiazol-2-yl]-2-fluorophenyl]methyl]tetrazol-5-yl]-N-methylquinolin-2-amine] |
| 275 nM | > 200 µM | Fc1cccc(-c2cn(Cc3ccc(-c4nnc(C(F)F)o4)cc3)nn2)c1 [compound 248, 2-(difluoromethyl)-5-(4-((4-(3-fluorophenyl)-1H-1,2,3-triazol-1-yl)methyl)phenyl)-1,3,4-oxadiazole] |
| 49 nM | > 1000 µM | CS(=O)(=O)NCC(c1ccc(-c2nnc(C(F)F)o2)cc1)n1cc(-c2ccc(N)nc2)nn1 (stereo not shown) [compound 302, N-[2-[4-(6-aminopyridin-3-yl)triazol-1-yl]-2-[4-[5-(difluoromethyl)-1,3,4-oxadiazol-2-yl]phenyl]ethyl]methanesulfonamide] |
| 56 nM | > 200 µM | Nc1ccc(-c2nc(Cc3c(F)cc(-c4nnc(C(F)F)o4)cc3F)no2)cn1 [compound 141, 5-(3-(4-(5-(difluoromethyl)-1,3,4-oxadiazol-2-yl)-2,6-difluorobenzyl)-1,2,4-oxadiazol-5-yl)pyridin-2-amine] |
| 7 nM | > 200 µM | FC(F)c1nnc(-c2ccc(Cn3cc(-c4ccc(NC5=NCCN5)cc4)nn3)nc2)o1 [compd. 24, N-(4-(1-((5-(5-(difluoromethyl)-1,3,4-oxadiazol-2-yl)pyridin-2-yl)methyl)-1H-1,2,3-triazol-4-yl)phenyl)-4,5-dihydro-1H-imidazol-2-amine] |
| 50 nM | > 200 µM | FC(F)c1nnc(-c2ccc(Cn3nnc(-c4cccc(-c5cnc(N6CCOCC6)s5)c4)n3)nc2)o1 [compound 130, 4-(5-(3-(2-((5-(5-(difluoromethyl)-1,3,4-oxadiazol-2-yl)pyridin-2-yl)methyl)-2H-tetrazol-5-yl)phenyl)thiazol-2-yl)morpholine] |
| 52 nM | > 200 µM | Nc1ccc(-c2cn(Cc3ccc(-c4nnc(C(F)F)o4)cc3Cl)nn2)cn1 [compound 134, 5-(1-(2-chloro-4-(5-(difluoromethyl)-1,3,4-oxadiazol-2-yl)benzyl)-1H-1,2,3-triazol-4-yl)pyridin-2-amine] |
| 77 nM | > 200 µM | CN(C)S(=O)(=O)c1ccc(F)c(-c2nnn(Cc3ccc(-c4nnc(C(F)F)o4)cc3)n2)c1 [compound 163, 3-(2-(4-(5-(difluoromethyl)-1,3,4-oxadiazol-2-yl)benzyl)-2H-tetrazol-5-yl)-4-fluoro-N,N-dimethylbenzenesulfonamide] |
| 104 nM | > 200 µM | O=C1Nc2cc(-c3nnn(Cc4ccc(-c5nnc(C(F)F)o5)cc4)n3)ccc2NC12CCCC2 [compound 195, 6′-(2-(4-(5-(difluoromethyl)-1,3,4-oxadiazol-2-yl)benzyl)-2H-tetrazol-5-yl)-1′,4′-dihydro-3′H-spiro[cyclopentane-1,2′-quinoxalin]-3′-one] |
| 39 nM | > 200 µM | NCc1ccc(-c2nc(Cc3c(F)cc(-c4nnc(C(F)F)o4)cc3F)no2)cc1 [compound 100, (4-(3-(4-(5-(difluoromethyl)-1,3,4-oxadiazol-2-yl)-2,6-difluorobenzyl)-1,2,4-oxadiazol-5-yl)phenyl)methanamine] |
| 156 nM | > 200 µM | CC(C)(c1ccncc1)c1nnn(Cc2ccc(-c3nnc(C(F)F)o3)cc2)n1 [compound 219, 2-(difluoromethyl)-5-(4-((5-(2-(pyridin-4-yl)propan-2-yl)-2H-tetrazol-2-yl)methyl)phenyl)-1,3,4-oxadiazole] |
| 217 nM | 1000 µM | CNc1ncc2cc(-c3cn(Cc4cc(F)c(-c5nnc(C(F)F)o5)cc4F)nn3)ccc2n1 [compound 391, 6-[1-({4-[5-(difluoromethyl)-1,3,4-oxadiazol-2-yl]-2,5-difluorophenyl}methyl)-1H-1,2,3-triazol-4-yl]-N-methylquinazolin-2-amine] |
